This note sets out measurements from US7959691B2, “Composition” (Innospec Deutschland GmbH, priority 2009, dated 2011).

Marks after values point to notes of the source that are not given here.

Series [1] is described as follows: Iron content of Isopar L solutions stored at −30° C. (Example 2). Format: physicochemical. Particulars: for Iron content of Isopar L solutions at −30° C.: 5 wt % iron solutions in Isopar L stored at −30° C. at least one week, filtered, X-ray spectroscopy; for Iron content of Isopar L solutions at −30° C., purified sample: as E8, sample first purified by dissolving in minimum heptane, recrystallising out ferrocene, filtration, solvent removal. On the procedure: The solubilities of the products of the above reactions were determined on a weight percent iron basis. […] Solutions at 5 wt % iron in Isopar L were prepared on this basis, sealed into vials and stored at −30° C. during at least one week.

The nature of series [2]: Viscosity of 2.5 wt % iron solutions in toluene (Bohlin CVO rheometer). Format: physicochemical. Particulars: toluene solution at 2.5 wt % Fe. The method, then:
Viscosities of 2.5 wt % iron solutions were determined using a Bohlin Instruments CVO rheometer using a 4° 40 mm cone and plate at shear rates of either 2 Pa or 0.5 Pa.

On series [3], the source says:
Solubility testing was undertaken using the estimate of Fe content from C/H/N analysis. […] This procedure assumes the products below to contain substantially only C, H and Fe. Masses of product(s) sufficient to provide the required concentration of iron as condensation products were weighed into screw-cap vials and made up to 10.00 g with toluene. The samples were capped, shaken or swirled until homogenous then sealed using Parafilm™. The vials were then kept in an ethylene glycol/water filled bath held at −30° C. and periodically inspected for the appearance of solids or separation of liquid phases. After at least one week solids were separated by rapid filtration and soluble products isolated by removal of solvent under vacuum.
Following analysis of the solids, maximum and minimum solubilities were estimated from the mass balance.

Series [4] in a line: Solubility in Isopar L at −30° C. during 120 hours, X-ray fluorescence (Example 4). It counts as physicochemical. Particulars: nominal 5 wt % iron; for Solubility (% m/m Fe): 0.02 μm filtration. The method, then:
The solubility of the isolated samples was determined in Isopar L solvent. For the isolated samples of compounds 7 and 8 the C/H/N analysis was used to indicate the iron content. For compounds 9 and 10 the theoretical iron content was assumed. Solutions were then prepared, at ambient temperatures or with slight warming as required, to a nominal iron content 5 wt % The samples were then sealed and immersed in a bath of ethylene glycol/water cooled and thermostatted to −30° C. during 120 hours.
The samples were then individually removed from the bath, taken up into a 10 cm^3 syringe then discharged to a second vial with filtration via a Whatman Anotop 25 0.02 μm in-line filter with Luer hub. Iron contents were then determined by X-ray fluorescence spectroscopy in an Oxford Instruments ED2000 Ag analyser. The analyser was calibrated against standards of ferrocene in toluene at iron concentrations of 0.5 through 3.0 wt % by 0.5 wt % intervals and against ferrocene in Isopar L 0.5 and 1.0 wt % (approximate ambient temperature solubility limit). Where required, dilution of sample materials was employed to bring the concentration within the range of the calibration.

Turning to 2,2-bis-(ferrocenyl)-octane, in series [1], the “Iron content of Isopar L solutions at −30° C.” value is given as 2.72 wt %.

1,1-diferrocenylpentane [Compound 4]: the “Viscosity at −30° C.” value in series [2] is 5.4 mPas. Also, in series [3], the “Solubility in Toluene at −30° C., 2.5 wt % Fe” value (from here on “Solubility … 2.5 wt % Fe”) is listed as “Clear” and the “Solubility in Toluene at −30° C., 5.0 wt % Fe” value (“Solubility … 5.0 wt % Fe” for short) was “Clear”.

“1,1-bis(ethylferrocenyl)pentane [Compound 9]”: in series [4], the Appearance/ease of filtration entry is listed as “Clear, filters well” and the “Solubility (% m/m Fe)” value was found to be 5.0 % m/m Fe.

In the case of 1,1-bis-(ferrocenyl)-decane, the “Iron content of Isopar L solutions at −30° C.” value in series [1] stood at 4.41 wt %.

With 2,2-bis-(ferrocenyl)-pentane, the “Iron content of Isopar L solutions at −30° C.” value in series [1] is reported as 2.62 wt %.

With 1,1-bis-(ferrocenyl)-hexane, in series [1], the “Iron content of Isopar L solutions at −30° C.” value amounted to 3.99 wt % and the “Iron content of Isopar L solutions at −30° C., purified sample” value is reported as 4.89* wt %.

For 1,1-bis-(ferrocenyl)-heptane, in series [1], the “Iron content of Isopar L solutions at −30° C.” value is on record as 4.05 wt %.

For `CCCCC(C=O)CC` (centres unmarked) [Compound 1, 2-Ethylhexanal], in series [2], the “Viscosity at −30° C.” value was 5.1 to 6.4 mPas. In addition, in series [3], the “Solubility … 2.5 wt % Fe” value is reported as “Clear”; the “Solubility … 5.0 wt % Fe” value is reported as “Clear”; the “solubility limit in toluene” value is recorded as “less than 3.2 wt %”.

Regarding 3,3-bis-(ferrocenyl)-butyl acetate, the “Iron content of Isopar L solutions at −30° C.” value in series [1] stood at 2.30 wt %.

As for 1,1-bis-(ferrocenyl)-nonane, in series [1], the “Iron content of Isopar L solutions at −30° C.” value was 4.96 wt %.

Take “1,1-bis(butylferrocenyl)pentane [Compound 10]”: in series [4], the Appearance/ease of filtration result is on record as “Clear, but hard to filter” and the “Solubility (% m/m Fe)” value is 4.8 % m/m Fe.

On to 2,2-bis-(ferrocenyl)-heptane, for which the “Iron content of Isopar L solutions at −30° C.” value in series [1] amounted to 3.29 wt %.

Turning to 3,3-bis-(ferrocenyl)-pentane, the “Iron content of Isopar L solutions at −30° C.” value in series [1] is 1.71 wt %.

As for `CC(=O)CCC(C)=O` [Compound 2, Acetonyl acetone], in series [3], the “Solubility … 2.5 wt % Fe” value is recorded as “Powder” and the “Solubility … 5.0 wt % Fe” value is listed as “Powder”.

Turning to 3,3-bis-(ferrocenyl)-hexane, in series [1], the “Iron content of Isopar L solutions at −30° C.” value came to 1.38 wt %.

In the case of 1,1-bis-(ferrocenyl)-octane, in series [1], the “Iron content of Isopar L solutions at −30° C.” value is reported as 4.60 wt % and the “Iron content of Isopar L solutions at −30° C., purified sample” value was 4.88* wt %.

As for `CCCC(=O)CCC` [Compound 3, Heptan-4-one], the “Viscosity at −30° C.” value in series [2] is 5.1 mPas. In series [3], the “Solubility … 2.5 wt % Fe” value was “Clear” and the “Solubility … 5.0 wt % Fe” value is “Solids”.
